Reference: ChEMBL document CHEMBL5620425, “Design, synthesis and evaluation of novel 1-phenyl-pyrrolo[1,2-b]isoquinolin-3-one derivatives as antagonists for the glycine binding site of the NMDA receptor” (Eur J Med Chem, 2023)
Activity calls are given as the source filed them. No cut-off for these calls is given here.

How the values were obtained:
PC-12 [1] = test: Neuroprotective activity against NMDA-induced cell injury in rat PC12 cells assessed as cell viability incubated for 24 hrs MTT assay; type: functional, cell-based; details: dose 2.5-20 µM
[2] = biological target: T1, Glutamate receptor ionotropic, NMDA 1 (Homo sapiens, UniProt Q05586); test: Binding affinity to C-terminal GFP-tagged Grin1 NMDA receptor (unknown origin) expressed in HEK293F cells assessed as dissociation constant by MST assay; type: cell-based
PC-12 [3] = test: Neuroprotective activity against NMDA-induced cell injury in rat PC12 cells assessed as cell viability at 2.5 to 20 uM incubated for 24 hrs MTT assay; type: functional, cell-based; details: dose 2.5-20 µM
PC-12 [4] = test: Neuroprotective activity against NMDA-induced cell injury in rat PC12 cells assessed as cell viability at 20 uM incubated for 24 hrs MTT assay (reference value: 77.1+/- 1.3%); type: functional; details: for viability at 20 µM: Rattus norvegicus; for Activity: 24 h, 20 µM
PC-12 [5] = test: Cytotoxicity against rat PC12 cells assessed as reduction in cell viability at 20 uM incubated for 24 hrs by MTT assay; type: functional
PC-12 [6] = test: Induction of apoptosis in NMDA-induced rat PC12 cells assessed as viable cells at 10 uM pretreated with compound for 24 hrs followed by NMDA addition and measured after 6 hrs by Annexin V-FITC/PI staining based flow cytometer analysis (reference value: 46.58%); type: functional; details: time 30 hrs, read-out: Activity
[7] = biological target: Glutamate NMDA receptor (Rattus norvegicus) (UniProt P35439+Q00959+Q00960+Q00961+Q62645+Q8VHN2+Q9R1M7); test: Antagonist activity at NMDA receptor in rat PC12 cells assessed as reduction in NMDA-induced calcium ion influx at 10 uM pretreated with compound for 24 hrs followed by NMDA addition and measured after 6 hrs calcium colorimetric assay; type: cell-based; details: filed as antagonist, time 30.0 hrs
PC-12 [8] = test: Neuroprotective activity against NMDA-induced cell injury in rat PC12 cells assessed as cell viability 10 uM incubated for 24 hrs MTT assay; type: functional
[9] = biological target: T1, Glutamate receptor ionotropic, NMDA 1; test: Binding affinity to C-terminal GFP-tagged NMDA Grin1.M mutant (unknown origin) expressed in HEK293F cells assessed as dissociation constant by MST assay; type: cell-based
PC-12 [10] = test: Induction of apoptosis in NMDA-induced rat PC12 cells assessed as early apoptotic cells at 10 uM pretreated with compound for 24 hrs followed by NMDA addition and measured after 6 hrs by Annexin V-FITC/PI staining based flow cytometer analysis (reference value: 23.33%); type: functional; details: time 30 hrs
PC-12 [11] = test: Neuroprotective activity against NMDA-induced cell injury in rat PC12 cells assessed as cell viability 5 uM incubated for 24 hrs MTT assay; type: functional
PC-12 [12] = test: Induction of apoptosis in NMDA-induced rat PC12 cells assessed as late apoptotic cells at 10 uM pretreated with compound for 24 hrs followed by NMDA addition and measured after 6 hrs by Annexin V-FITC/PI staining based flow cytometer analysis (reference value: 22.09 %); type: functional; details: time 30 hrs
PC-12 [13] = test: Induction of apoptosis in NMDA-induced rat PC12 cells assessed as necrotic cells at 10 uM pretreated with compound for 24 hrs followed by NMDA addition and measured after 6 hrs by Annexin V-FITC/PI staining based flow cytometer analysis (reference value: 8%); type: functional; details: time 30 hrs
PC-12 [14] = test: Effect on cell morphology in NMDA-induced rat PC12 cells assessed as cell shrank at 10 uM pretreated with NMDA for 6 hrs; type: functional, cell-based
PC-12 [15] = test: Cytotoxicity against rat PC12 cells assessed as reduction in cell viability at 5 uM incubated for 24 hrs by MTT assay; type: functional, cell-based
[16] = PC-12, 24 h, read-out: Activity

## O=C1C[C@@H](c2cccc(OCc3ccccc3)c2)[C@@H]2Cc3ccccc3CN12
PC-12 [1]
  Activity: Dose-Dependent Effect
[2]
  Kd: 0.37 µM
PC-12 [3]
  Activity: Active

## O=C1C[C@H](c2cccc(OCc3ccccc3)c2)[C@H]2Cc3ccccc3CN12
PC-12 [1]
  Activity: Dose-Dependent Effect
[2]
  Kd: 0.162 µM
PC-12 [3]
  Activity: Active

## O=C1CC(c2ccc(Cl)cc2)C2Cc3ccccc3CN12 (racemic)
PC-12 [4]; [16]
  viability at 20 µM: 77.1%

## O=C1CC(c2cccc(O)c2)C2Cc3ccccc3CN12 (racemic)
PC-12 [4]; [16]
  viability at 20 µM: 78.4%
PC-12 [5]
  Activity: >87.9%

## O=C1CC(c2ccccc2)C2Cc3ccc(OCc4ccccc4)cc3CN12 (racemic)
PC-12 [4]; [16]
  viability at 20 µM: 68.5%
PC-12 [5]
  Activity: >87.9%

## O=C1CC(c2cccc(OCc3ccccc3)c2)C2Cc3ccccc3CN12 (racemic)
PC-12 [6]
  viability at 10 µM: 59.6%
[7]
  Activity: Active
PC-12 [1]
  Activity: Dose-Dependent Effect
PC-12 [8]
  Activity: 92.7%
[9]
  Kd: 4.25 µM
PC-12 [10]
  Activity: 15.6%
PC-12 [4]; [16]
  viability at 20 µM: 94.4%
PC-12 [11]
  Activity: 93.1%
PC-12 [12]
  Activity: 17.88%
[2]
  Kd: 0.496 µM
PC-12 [13]
  Activity: 6.94%
PC-12 [5]
  Activity: >87.9%
PC-12 [14]
  Activity: Active

## O=C1CC(c2ccccc2)C2Cc3ccc(O)cc3CN12 (racemic)
PC-12 [4]; [16]
  viability at 20 µM: 82.4%
PC-12 [5]
  Activity: >87.9%

## O=C1CC(c2ccccc2)C2Cc3ccc(F)cc3CN12 (racemic)
PC-12 [4]; [16]
  viability at 20 µM: 82.2%
PC-12 [5]
  Activity: >87.9%

## O=C1CC(c2ccccc2)C2Cc3ccccc3CN12 (racemic; 13a)
PC-12 [4]; [16]
  viability at 20 µM: 85.3%
PC-12 [5]
  Activity: >87.9%

## O=C1CC(c2ccc(F)cc2)C2Cc3ccccc3CN12 (racemic; 13d)
PC-12 [4]; [16]
  viability at 20 µM: 90.6%
PC-12 [5]
  Activity: >87.9%

## O=C1CC(c2ccccc2Cl)C2Cc3ccccc3CN12 (racemic; 13e)
PC-12 [4]; [16]
  viability at 20 µM: 77.9%
PC-12 [5]
  Activity: >87.9%

## COc1ccc(C2CC(=O)N3Cc4cc(O)ccc4CC23)cc1 (racemic; 13f)
PC-12 [4]; [16]
  viability at 20 µM: 81.7%
PC-12 [5]
  Activity: >87.9%

## O=C1CC(c2ccc(C(F)(F)F)cc2)C2Cc3ccccc3CN12 (racemic; 13g)
PC-12 [4]; [16]
  viability at 20 µM: 85.6%

## Cc1ccc(C2CC(=O)N3Cc4ccccc4CC23)cc1 (racemic; 13i) [listing 1 of 2 here]
PC-12 [4]; [16]
  viability at 20 µM: 77%

## Cc1ccc(C2CC(=O)N3Cc4ccccc4CC23)cc1 (racemic; 13i) [listing 2 of 2 here]
PC-12 [15]
  Activity: Active

## O=C1CC(c2cccc(Oc3ccccc3)c2)C2Cc3ccccc3CN12 (racemic; 13j) [listing 1 of 2 here]
PC-12 [4]; [16]
  viability at 20 µM: 77.6%
PC-12 [5]
  Activity: 3.4%

## O=C1CC(c2cccc(Oc3ccccc3)c2)C2Cc3ccccc3CN12 (racemic; 13j) [listing 2 of 2 here]
PC-12 [15]
  Activity: Active

## O=C1CC(c2ccccc2Oc2ccccc2)C2Cc3ccccc3CN12 (racemic; 13k)
PC-12 [4]; [16]
  viability at 20 µM: 77.5%
PC-12 [5]
  Activity: 3.4%

## O=C1CC(c2cccc3ccccc23)C2Cc3ccccc3CN12 (racemic; 13l)
PC-12 [4]; [16]
  viability at 20 µM: 74.2%

## O=C1CC(c2ccccc2)C2Cc3ccccc3CN12 (racemic; 14a)
PC-12 [4]
  Activity: 85%

## O=C1CC(c2ccc(F)cc2)C2Cc3ccccc3CN12 (racemic; 14e)
PC-12 [4]
  Activity: 88.1%

## O=C1CC(c2ccccc2Cl)C2Cc3ccccc3CN12 (racemic; 14f)
PC-12 [4]
  Activity: 74.8%

## COc1ccc(C2CC(=O)N3Cc4cc(O)ccc4CC23)cc1 (racemic; 14g)
PC-12 [4]
  Activity: 75.2%

## O=C1CC(c2ccc(C(F)(F)F)cc2)C2Cc3ccccc3CN12 (racemic; 14h)
PC-12 [4]
  Activity: 78.7%

## Cc1ccc(C2CC(=O)N3Cc4ccccc4CC23)cc1 (racemic; 14j)
PC-12 [4]
  Activity: 82.3%

## O=C1CC(c2cccc(Oc3ccccc3)c2)C2Cc3ccccc3CN12 (racemic; 14k) [listing 1 of 2 here]
PC-12 [4]
  Activity: 72.3%

## O=C1CC(c2cccc(Oc3ccccc3)c2)C2Cc3ccccc3CN12 (racemic; 14k) [listing 2 of 2 here]
PC-12 [15]
  Activity: Active

## O=C1CC(c2ccccc2Oc2ccccc2)C2Cc3ccccc3CN12 (racemic; 14l) [listing 1 of 2 here]
PC-12 [4]
  Activity: 76.3%

## O=C1CC(c2ccccc2Oc2ccccc2)C2Cc3ccccc3CN12 (racemic; 14l) [listing 2 of 2 here]
PC-12 [15]
  Activity: Active

## O=C1CC(c2cccc3ccccc23)C2Cc3ccccc3CN12 (racemic; 14m)
PC-12 [4]
  Activity: 74%

## C[C@]12N[C@H](Cc3ccccc31)c1ccccc12 [DIZOCILPINE]
PC-12 [6]
  viability at 10 µM: 70.9%
[7]
  Activity: Active
PC-12 [10]
  Activity: 10.22%
PC-12 [4]; PC-12, read-out: Activity
  viability at 20 µM: 95.1%
PC-12 [12]
  Activity: 12.12%
PC-12 [13]
  Activity: 6.81%
PC-12 [14]
  Activity: Active
